Experimental findings from PMC6264549, “Synthesis and Biological Evaluation of 3-Substituted-indolin-2-one Derivatives Containing Chloropyrrole Moieties” (Molecules, 2011) are described below.

The test system of data set [1] is large cell lung cancer cell lines (NCI-H460). Nature of the data set: MTT cell growth inhibition assay, NCI-H460. Particulars: Homo sapiens, 48 h, NCI-H460 cells, two days, read-out: IC50 ± SD NCI-H460. The format is cell-based. As to the method:
(§1) The antitumor activities of 14a-r were evaluated in vitro on four tumor cell lines, including non-small cell lung cancer (A549), oral epithelial (KB), melanoma (K111) and large cell lung cancer cell lines (NCI-H460) by the MTT assay, and the results are summarized in Table 1.
(§2) Non-small cell lung cancer (A549), oral epithelial (KB), large cell lung cancer (NCI-H460) and melanoma cell lines (K111) were cultured in Dulbecco’s modified Eagle medium (GIBCO) containing 10% (v/v) inactivated newborn calf serum (Boren Bio-Pharmaceutical Co., Ltd.: Guangzhou, China), […] L-glutamine (SANGON), […] penicillin, 100 µg/mL streptomycin. Cells were grown in a 5% CO2 incubator at 37 °C.
(§3) The antitumor activities were determined by the MTT assay. Cells (2 × 10^3 cells/well) were seeded in 96-well plates. After incubation overnight, each compound, which was dissolved in dimethylsulfoxide (DMSO) and diluted with phosphate buffer solution (PBS), was added to each well and the cells were cultured for another two days at 37 °C. 20 μL (5 mg/mL) MTT solution was added to per well and the culture continued for another 3–4 h. The medium was removed and 100 μL DMSO was added to dissolve formazan crystals. Absorbance was measured at 492 nm using an ELISA reader (Thermo). The antitumor activities were expressed as IC50.

For data set [2], the system named is non-small cell lung cancer (A549). The data set can be described thus: MTT cell growth inhibition assay, A549. The settings on record: Homo sapiens, 48 h, A549 cells, two days, read-out: IC50 ± SD A549. The format is cell-based. As to the method: as §1, §2, §3
The subject of data set [3] is melanoma (K111). The data set can be described thus: MTT cell growth inhibition assay, K111. The settings on record: 48 h, K111 cells, two days, read-out: IC50 ± SD K111. In kind it is cell-based. As for the experimental part:
as §1, §2, §3

The test system of data set [4] is oral epithelial (KB). The data set can be described thus: MTT cell growth inhibition assay, KB. The format is cell-based. The settings on record: Homo sapiens, 48 h, KB cells, two days. As to the method: as §1, §2, §3
Data set [5] has as its target VEGFR2 tyrosine kinase (Homo sapiens, UniProt P35968). The data set can be described thus: VEGFR2 inhibition assay (ELISA). The format is biochemical. The settings on record: 5.0 µM ATP, Poly (Glu, Tyr)4:1 substrate, read-out: IC50 ± SD VEGFR2. As for the experimental part:
Seven compounds in the 14a–r series with low IC50 values on the tumor cell lines were evaluated for their inhibition of VEGFR2 using an enzyme-linked immunosorbent assay (ELISA), and the data are summarized in Table 2.
The VEGFR2 inhibition assay was performed by enzyme-linked immunosorbent assay (ELISA) in 96-well plates pre-coated with 2.5 µg/well Poly (Glu, Tyr)4:1 as a substrate. Each well was treated with 90 µL of 5.0 µM ATP (Amresco) solution and 10 µL of one of the seven compounds at varying concentrations, which were diluted in reaction buffer (50 mM HEPES pH 7.4, 20 mM MgCl2, 0.1 mM Na3VO4, 1 mM DTT). […] The reaction was initiated by adding 1 µL/well of VEGFR2 tyrosine kinase. After incubation for 1 h at 37 °C, the plates were washed three times with phosphate buffered saline containing 0.1% Tween-20 (T-PBS). Next, anti-phosphotyrosine (PY99; 1:1,000 dilution, 100 μL/well) antibody was added. After 1 h incubation at room temperature, the plates were washed three times, and goat anti-mouse IgG horseradish peroxidase (100 μL/well of 1:2,000 dilution) diluted in T-PBS was added. The plates were reincubated at room temperature for 1 h, and washed as before. Finally, color development solution (0.03% H2O2 and 2 mg/mL o-phenylenediamine in 0.1 M citrate buffer, pH 5.5, 100 µL/well) was added and the plates were incubated at room temperature until color emerged. The reaction was terminated by the addition of 2 M H2SO4 (50 µL/well), and A492 was measured using a tunable wavelength microplate reader (Molecular Devices SPECTRAMAX190). The inhibition rate was calculated using the equation: [1 − (A492/A492 control)] × 100%.

VEGFR2 tyrosine kinase, sequence (P35968 20-1356): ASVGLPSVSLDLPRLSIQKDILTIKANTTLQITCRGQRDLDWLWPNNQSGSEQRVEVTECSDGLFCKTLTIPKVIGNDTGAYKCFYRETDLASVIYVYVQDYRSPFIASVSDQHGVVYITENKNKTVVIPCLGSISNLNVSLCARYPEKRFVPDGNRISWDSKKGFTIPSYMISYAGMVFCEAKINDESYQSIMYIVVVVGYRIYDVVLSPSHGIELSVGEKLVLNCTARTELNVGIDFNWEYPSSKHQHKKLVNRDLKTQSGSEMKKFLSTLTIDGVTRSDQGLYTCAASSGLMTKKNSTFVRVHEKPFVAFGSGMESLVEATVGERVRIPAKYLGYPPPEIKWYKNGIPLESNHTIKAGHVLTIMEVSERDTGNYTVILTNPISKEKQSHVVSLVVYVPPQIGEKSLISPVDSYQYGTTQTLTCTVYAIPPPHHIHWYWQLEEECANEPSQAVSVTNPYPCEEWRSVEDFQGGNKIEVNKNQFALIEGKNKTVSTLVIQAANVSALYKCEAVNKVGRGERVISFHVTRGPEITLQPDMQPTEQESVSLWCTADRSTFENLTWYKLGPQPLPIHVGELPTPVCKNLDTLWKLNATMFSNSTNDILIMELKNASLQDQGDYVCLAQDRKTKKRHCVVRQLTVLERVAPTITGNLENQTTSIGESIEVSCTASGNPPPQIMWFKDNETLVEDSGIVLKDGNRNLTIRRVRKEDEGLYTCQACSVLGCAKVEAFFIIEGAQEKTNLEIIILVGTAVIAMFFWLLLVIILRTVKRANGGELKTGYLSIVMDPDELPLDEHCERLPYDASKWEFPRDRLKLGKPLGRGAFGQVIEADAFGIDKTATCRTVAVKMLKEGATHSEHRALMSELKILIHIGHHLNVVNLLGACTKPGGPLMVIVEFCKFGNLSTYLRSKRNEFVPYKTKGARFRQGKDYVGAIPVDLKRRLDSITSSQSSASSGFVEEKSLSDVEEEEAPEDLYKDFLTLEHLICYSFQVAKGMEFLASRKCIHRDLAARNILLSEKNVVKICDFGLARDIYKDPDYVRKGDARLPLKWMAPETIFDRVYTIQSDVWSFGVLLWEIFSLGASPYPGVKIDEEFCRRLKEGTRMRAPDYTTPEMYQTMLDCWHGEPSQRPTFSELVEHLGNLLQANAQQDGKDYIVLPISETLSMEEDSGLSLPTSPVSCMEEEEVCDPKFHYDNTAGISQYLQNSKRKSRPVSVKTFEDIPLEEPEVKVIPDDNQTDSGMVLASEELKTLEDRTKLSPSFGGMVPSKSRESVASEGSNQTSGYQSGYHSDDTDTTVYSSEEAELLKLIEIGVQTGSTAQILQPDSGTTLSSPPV

Take `Cc1[nH]c(/C=C2\C(=O)Nc3ccc(F)cc32)c(Cl)c1C(=O)NCCN1CCOCC1` [Compound 14a, (Z)-4-Chloro-5-((5-fluoro-2-oxoindolin-3-ylidene)methyl)-2-methyl-N-(2-morpholinoethyl)-1H-pyrrole-3-carboxamide]: the melting point was in the range of 268.5 to 269.7 °C. The IC50 in data set [1] was more than 100 µM. Also, in data set [2], the IC50 came to 1.47 ± 0.13 µM. Further, the IC50 in data set [3] is more than 100 µM. The same compound came in with an IC50 in data set [4] of 52.9 ± 7.93 µM.

In the case of `Cc1[nH]c(/C=C2\C(=O)Nc3ccc(F)cc32)c(Cl)c1C(=O)N1CCN(C)CC1` [Compound 14b, (Z)-3-((3-Chloro-5-methyl-4-(4-methylpiperazine-1-carbonyl)-1H-pyrrol-2-yl)methylene)-5-fluoroindolin-2-one], the melting point lay in the range of 276.7 to 278.5 °C. The IC50 in data set [1] is more than 100 µM. For the same compound, the IC50 in data set [2] is more than 100 µM. Besides, in data set [3], the concentration for half-maximal inhibition (IC50) was more than 100 µM. Also, in data set [4], the IC50 is more than 100 µM.

Consider `Cc1[nH]c(/C=C2\C(=O)Nc3ccc(F)cc32)c(Cl)c1C(=O)NC1CNC1` [Compound 14c, (Z)-N-(azetidin-3-yl)-4-chloro-5-((5-fluoro-2-oxoindolin-3-ylidene)methyl)-2-methyl-1H-pyrrole-3-carboxamide], for which the melting point is 230.5 to 232 °C. For the same compound, the IC50 in data set [1] amounted to 1.41 ± 0.17 µM. Moreover, the IC50 in data set [2] worked out at 2.43 ± 0.26 µM. In addition, in data set [5], the IC50 was found to be 0.0068 ± 0.0018 µM. Moreover, the IC50 in data set [3] turned out to be 3.41 ± 0.52 µM. This compound also came in with an IC50 in data set [4] of 1.35 ± 0.12 µM.

As to `CCCNC(=O)c1c(C)[nH]c(/C=C2\C(=O)Nc3ccc(F)cc32)c1Cl` [Compound 14d, (Z)-4-Chloro-5-((5-fluoro-2-oxoindolin-3-ylidene)methyl)-2-methyl-N-propyl-1H-pyrrole-3-carboxamide], the melting point was more than 290 °C. Moreover, the IC50 in data set [1] is more than 100 µM. Besides, the IC50 in data set [2] was more than 100 µM. Further, in data set [3], the IC50 was more than 100 µM. The compound also had an IC50 in data set [4] of more than 100 µM.

As to `Cc1[nH]c(/C=C2\C(=O)Nc3ccc(F)cc32)c(Cl)c1C(=O)NCCCN(C)C` [Compound 14e, (Z)-4-Chloro-N-(3-(dimethylamino)propyl)-5-((5-fluoro-2-oxoindolin-3-ylidene)methyl)-2-methyl-1H-pyrrole-3-carboxamide], the melting point was in the range of 235.1 to 237.3 °C. Further, in data set [1], the IC50 was more than 100 µM. For the same compound, in data set [2], the IC50 is 2.33 ± 0.31 µM. In data set [3], the IC50 is more than 100 µM. Moreover, the IC50 in data set [4] was 2.88 ± 0.33 µM.

`Cc1[nH]c(/C=C2\C(=O)Nc3ccc(F)cc32)c(Cl)c1C(=O)NCCN(C)C` [Compound 14f, (Z)-4-Chloro-N-(2-(dimethylamino)ethyl)-5-((5-fluoro-2-oxoindolin-3-ylidene)methyl)-2-methyl-1H-pyrrole-3-carboxamide] yielded a melting point of 271.8 to 274.2 °C. Further, the IC50 in data set [1] worked out at 1.67 ± 0.18 µM. Moreover, the IC50 in data set [2] came to 1.69 ± 0.17 µM. In data set [5], the IC50 was determined as 0.0062 ± 0.0008 µM. Further, the IC50 in data set [3] came to 1.35 ± 0.28 µM. In data set [4], this compound displayed an IC50 of 1.56 ± 0.08 µM.

`CCN(CC)CCNC(=O)c1c(C)[nH]c(/C=C2\C(=O)Nc3ccc(Cl)cc32)c1Cl` [Compound 14i, (Z)-4-Chloro-5-((5-chloro-2-oxoindolin-3-ylidene)methyl)-N-(2-(diethylamino)ethyl)-2-methyl-1H-pyrrole-3-carboxamide] registered a melting point of 246 to 247 °C. Besides, the IC50 in data set [1] is more than 100 µM. Also, the IC50 in data set [2] was determined as 0.32 ± 0.03 µM. For the same compound, the IC50 in data set [5] is 0.0112 ± 0.0026 µM. The IC50 in data set [3] was more than 100 µM. For the same compound, in data set [4], inhibition was half-maximal at 1.15 ± 0.2 µM (IC50).

Turning to `CCN(CC)CCNC(=O)c1c(Cl)[nH]c(/C=C2\C(=O)Nc3ccc(Br)cc32)c1C` [Compound 14j, (Z)-5-((5-bromo-2-oxoindolin-3-ylidene)methyl)-2-chloro-N-(2-(diethylamino)ethyl)-4-methyl-1H-pyrrole-3-carboxamide], the melting point lay within 248.1 to 248.5 °C. The IC50 in data set [1] is more than 100 µM. For the same compound, the IC50 in data set [2] was more than 100 µM. Moreover, the IC50 in data set [3] is more than 100 µM. The same compound had an IC50 in data set [4] of 34.2 ± 2.96 µM.

In turn, `CCN(CC)CCNC(=O)c1c(C)[nH]c(/C=C2\C(=O)Nc3ccccc32)c1Cl` [Compound 14k, (Z)-4-Chloro-N-(2-(diethylamino)ethyl)-2-methyl-5-((2-oxoindolin-3-ylidene)methyl)-1H-pyrrole-3-carboxamide] registered a melting point of 238.5 to 240.1 °C. In data set [1], the IC50 is more than 100 µM. For the same compound, the IC50 in data set [2] is more than 100 µM. In addition, the IC50 in data set [3] was more than 100 µM. In data set [4], this compound showed an IC50 of 5.09 ± 1.01 µM.

Consider `CCN(CC)CCNC(=O)c1c(C)[nH]c(/C=C2\C(=O)Nc3ccc(C)cc32)c1Cl` [Compound 14l, (Z)-4-Chloro-N-(2-(diethylamino)ethyl)-2-methyl-5-((5-methyl-2-oxoindolin-3-ylidene)methyl)-1H-pyrrole-3-carboxamide], for which the melting point was 238.2 to 240 °C. Moreover, the IC50 in data set [1] is more than 100 µM. In data set [2], the IC50 is more than 100 µM. The IC50 in data set [3] was more than 100 µM. In data set [4], this compound came in with an IC50 of 64.4 ± 7.51 µM.

For `CCN(CC)CCNC(=O)c1c(Cl)[nH]c(/C=C2\C(=O)Nc3ccc(F)cc32)c1Cl` [Compound 14m, (Z)-2,4-Dichloro-N-(2-(diethylamino)ethyl)-5-((5-fluoro-2-oxoindolin-3-ylidene)methyl)-1H-pyrrole-3-carboxamide], the melting point was 269.1 to 270.3 °C. Moreover, the IC50 in data set [1] was more than 100 µM. Besides, in data set [2], the IC50 was more than 100 µM. The IC50 in data set [3] is more than 100 µM. In addition, the IC50 in data set [4] was more than 100 µM.

The compound `CCN(CC)CCNC(=O)c1cc(/C=C2\C(=O)Nc3ccc(F)cc32)[nH]c1Cl` [Compound 14n, (Z)-2-Chloro-N-(2-(diethylamino)ethyl)-5-((5-fluoro-2-oxoindolin-3-ylidene)methyl)-1H-pyrrole-3-carboxamide] displayed a melting point of 233.5 to 234.7 °C. Besides, in data set [1], the IC50 was more than 100 µM. In addition, the IC50 in data set [2] came out at 3.37 ± 0.27 µM. For the same compound, in data set [3], the IC50 was more than 100 µM. The compound also gave an IC50 in data set [4] of 4.23 ± 0.65 µM.

`CCN(CC)CCNC(=O)c1c(Cl)[nH]c(/C=C2\C(=O)Nc3ccc(F)cc32)c1C` [Compound 14o, (Z)-2-Chloro-N-(2-(diethylamino)ethyl)-5-((5-fluoro-2-oxoindolin-3-ylidene)methyl)-4-methyl-1H-pyrrole-3-carboxamide]: the melting point lay within 243.4 to 244 °C. Moreover, the IC50 in data set [1] is more than 100 µM. Further, the IC50 in data set [2] amounted to 2.14 ± 0.26 µM. For the same compound, in data set [3], the IC50 is more than 100 µM. In addition, inhibition in data set [4] was half-maximal at 1.51 ± 0.11 µM (IC50).

In the case of `CCNCCNC(=O)c1c(Cl)[nH]c(/C=C2\C(=O)Nc3ccc(F)cc32)c1C` [Compound 14p, (Z)-2-Chloro-N-(2-(ethylamino)ethyl)-5-((5-fluoro-2-oxoindolin-3-ylidene)methyl)-4-methyl-1H-pyrrole-3-carboxamide], the melting point fell in the range of 215 to 216.8 °C. Also, the IC50 in data set [1] was found to be 1.66 ± 0.23 µM. In addition, in data set [2], the IC50 amounted to 1.41 ± 0.09 µM. Further, the IC50 in data set [5] was found to be 0.006 ± 0.0012 µM. In addition, the IC50 in data set [3] amounted to 1.24 ± 0.16 µM. Further, in data set [4], the IC50 amounted to 0.69 ± 0.07 µM.

Compound `CCc1c(/C=C2\C(=O)Nc3ccc(F)cc32)[nH]c(Cl)c1C(=O)NCCN(CC)CC` [Compound 14q, (Z)-2-Chloro-N-(2-(diethylamino)ethyl)-4-ethyl-5-((5-fluoro-2-oxoindolin-3-ylidene)methyl)-1H-pyrrole-3-carboxamide] gave a melting point of 245.2 to 246.8 °C. Moreover, the IC50 in data set [1] was more than 100 µM. Further, the IC50 in data set [2] turned out to be 16.7 ± 2.7 µM. Also, in data set [3], the IC50 was more than 100 µM. In data set [4], the IC50 is 34.4 ± 2.9 µM.
